Read-outs that look alike come from different tables or passages of the source.
Tested on: human hepatoma cell line Bel-7402
Experiment: SRB proliferation assay, Bel-7402
Assay type: cell-based
Details: BEL-7402 cultivated in vitro, given as bounds, read-out: The Inhibition Activities for Human Liver Cancer Cells BEL-7402 (IC50)
Method: Protocol: the antineoplasmic activities in vitro of the compounds were assayed by a Sulforhodamine B (SRB) protocol. Tumor cells were cultivated at 37 under 5% CO2 in a RPMI 1640 medium or a DMEM medium (Gibco) containing 10% fetal bovine serum. Tumor cells were inoculated on a 96-well plate with a concentration of 0.4-1.0×10^4 cells per well according to the cell types. 24 hours later, the target compounds diluted 10 times were added, each compound having at least 5 concentrations. After treated by the compounds for 72 hours, the culture media were discarded, and the cells were fixed by 10% cold trichloroacetic acid, and then stained by Sulforhodamine B (SRB) solution. The uncombined SRB was washed off, and the SRB combined with protein was dissolved with Tris. OD values were recorded at 515 nm on an ELISA Reader, and the cell growth inhibition rate was calculated according to following equation: Inhibition rate=(ODcontrol−ODexperimental)/ODcontrol×100%
IC50 (50% inhibitory concentration) was calculated by using Logit method based on the inhibition rates at various concentration, and the results are shown in tables 1 and 2.
The following cell lines were used: human hepatocarcinoma cell line […]; ovarian cancer cell line SK-OV-3; human breast cancer cell line MDA-MB-231; human renal carcinoma cell line A498; colon adenocarcinoma cell line HT-29; non-small cell lung cancer cell line NCI-H460; lung adenocarcinoma cell line A549; human colon cancer cell line SW-620; human hepatoma cell line Bel-7402; human breast carcinoma cell line SK-BR-3; and human umbilical vein endothelial cells (HUVEC).

Row | SMILES | IC50 (Homo sapiens, Bel-7402, 72 h) | also measured
1 | CN(C)COc1ccc(-c2ccc(=O)[nH]n2)cc1C(F)(F)F [YHHU-501] | < 100 nM | 
2 | CC(C)C(Oc1ccc(-c2ccc(=O)[nH]n2)cc1C(F)(F)F)C(C)C [YHHU-502] | < 100 nM | 
3 | O=c1ccc(-c2ccc(OC3CCCC3)c(C(F)(F)F)c2)n[nH]1 [YHHU-503] | < 100 nM | 
4 | CCOC(=O)CSc1ccc(-c2ccc(=O)[nH]n2)cc1C(F)(F)F [YHHU-532] | < 100 nM | 
5 | COc1ccc(-c2ccc(=O)[nH]n2)cc1C(F)(F)F [YHHU-546] |  | IC50 (72 hours): < 100 nM
6 | O=c1ccc(-c2ccc(CO)c(C(F)(F)F)c2)n[nH]1 [YHHU-574] | < 100 nM | 
7 | O=c1ccc(-c2ccc(CCN3CCCCC3)c(C(F)(F)F)c2)n[nH]1 [YHHU-575] | < 100 nM | 
8 | CCOc1ccc(-c2ccc(=O)[nH]n2)cc1C(F)(F)F [YHHU-578] | < 100 nM | 
9 | O=c1ccc(-c2ccc(OCCBr)c(C(F)(F)F)c2)n[nH]1 [YHHU-579] | < 100 nM | 
10 | O=c1ccc(-c2ccc(O)c(C(F)(F)F)c2)n[nH]1 [YHHU-580] | < 100 nM | 
11 | Cc1ccc(-c2ccc(=O)[nH]n2)cc1C(F)(F)F [YHHU-581] | < 100 nM | 
12 | O=c1ccc(-c2ccc(OCCOCCO)c(C(F)(F)F)c2)n[nH]1 [YHHU-582] | < 100 nM | 
13 | O=c1ccc(-c2ccc(CCN3CCOCC3)c(C(F)(F)F)c2)n[nH]1 [YHHU-585] | < 100 nM | 
14 | O=c1ccc(-c2ccc(OCCC(F)(F)F)c(C(F)(F)F)c2)n[nH]1 [YHHU-586] | < 100 nM | 
15 | CCSc1ccc(-c2ccc(=O)[nH]n2)cc1C(F)(F)F [YHHU-589] | < 100 nM | 
16 | CN1CCCC(COc2ccc(-c3ccc(=O)[nH]n3)cc2C(F)(F)F)C1 (stereo not shown) [YHHU-590] | < 100 nM | 
17 | O=c1ccc(-c2ccc(OC34CC5CCC(C3)C(C5)C4)c(C(F)(F)F)c2)n[nH]1 (stereo not shown) [YHHU-592] | < 100 nM | 
18 | CC1CCC(C(C)C)C(Oc2ccc(-c3ccc(=O)[nH]n3)cc2C(F)(F)F)C1 (stereo not shown) [YHHU-595] | < 100 nM | 
19 | CC(Oc1ccc(-c2ccc(=O)[nH]n2)cc1C(F)(F)F)N1CCCCC1 (stereo not shown) [YHHU-597] | < 100 nM | 
20 | O=c1ccc(-c2ccc(OC3CCCCCC3)c(C(F)(F)F)c2)n[nH]1 [YHHU-598] | < 100 nM | 
21 | CN(C)c1ccc(-c2ccc(=O)[nH]n2)cc1C(F)(F)F [YHHU-647] | < 10 nM | 
22 | O=c1ccc(-c2ccc(Nc3ccccc3)c(C(F)(F)F)c2)n[nH]1 [YHHU-658] | < 100 nM | 
23 | O=c1ccc(-c2ccc(NCc3ccccc3)c(C(F)(F)F)c2)n[nH]1 [YHHU-659] | < 100 nM | 
24 | O=C(O)[C@@H]1CC(O)CN1c1ccc(-c2ccc(=O)[nH]n2)cc1C(F)(F)F (stereo partly shown) [YHHU-666] | < 1000 nM | 
25 | O=C1CCCN1c1ccc(-c2ccc(=O)[nH]n2)cc1C(F)(F)F [YHHU-667] | < 100 nM | 

Row | SMILES | IC50 (Homo sapiens, Bel-7402, 72 h) | also measured
26 | O=C1CSC(=S)N1c1ccc(-c2ccc(=O)[nH]n2)cc1C(F)(F)F [YHHU-668] | < 1000 nM | 
27 | C[C@@H]1CN(c2ccc(-c3ccc(=O)[nH]n3)cc2C(F)(F)F)C[C@H](C)O1 [YHHU-669] | < 10 nM | 
28 | O=c1ccc(-c2ccc(N3CCSC3)c(C(F)(F)F)c2)n[nH]1 [YHHU-670] | < 1000 nM | 
29 | CCOC(=O)C1CCCN(c2ccc(-c3ccc(=O)[nH]n3)cc2C(F)(F)F)C1 (stereo not shown) [YHHU-671] | < 10 nM | 
30 | O=C1CCN(c2ccc(-c3ccc(=O)[nH]n3)cc2C(F)(F)F)CC1 [YHHU-672] | < 100 nM | 
31 | O=C1CCC(=O)N1c1ccc(-c2ccc(=O)[nH]n2)cc1C(F)(F)F [YHHU-673] | < 1000 nM | 
32 | O=C1CSC(=O)N1c1ccc(-c2ccc(=O)[nH]n2)cc1C(F)(F)F [YHHU-674] | < 1000 nM | 
33 | C[C@H]1CN(c2ccc(-c3ccc(=O)[nH]n3)cc2C(F)(F)F)CCN1 [YHHU-675] | < 10 nM | 
34 | CN(C)[C@H]1CCN(c2ccc(-c3ccc(=O)[nH]n3)cc2C(F)(F)F)C1 [YHHU-676] | < 10 nM | 
35 | O=c1ccc(-c2ccc(N3CCNCC3)c(C(F)(F)F)c2)n[nH]1 [YHHU-677] | < 100 nM | 
36 | CC(C)(C)OC(=O)N1CCN(c2ccc(-c3ccc(=O)[nH]n3)cc2C(F)(F)F)CC1 [YHHU-678] | < 10 nM | 
37 | O=c1ccc(-c2ccc(N3CCC(CCO)CC3)c(C(F)(F)F)c2)n[nH]1 [YHHU-679] | < 100 nM | 
38 | CN(CCO)c1ccc(-c2ccc(=O)[nH]n2)cc1C(F)(F)F [YHHU-681] | < 1000 nM | 
39 | C[C@@H]1CN(c2ccc(-c3ccc(=O)[nH]n3)cc2C(F)(F)F)CCN1 [YHHU-682] | < 10 nM | 
40 | CN(C)[C@@H]1CCN(c2ccc(-c3ccc(=O)[nH]n3)cc2C(F)(F)F)C1 [YHHU-683] | < 100 nM | 
41 | O=c1ccc(-c2ccc(N3CCN(CCO)CC3)c(C(F)(F)F)c2)n[nH]1 [YHHU-685] | < 10 nM | 
42 | CC(C)N(c1ccc(-c2ccc(=O)[nH]n2)cc1C(F)(F)F)C(C)C [YHHU-688] | < 10 nM | 
43 | O=c1ccc(-c2ccc(NC3CCCC3)c(C(F)(F)F)c2)n[nH]1 [YHHU-689] | < 100 nM | 
44 | CCOC(=O)C1CCN(c2ccc(-c3ccc(=O)[nH]n3)cc2C(F)(F)F)CC1 [YHHU-693] | < 100 nM | 
45 | CSc1ccc(-c2ccc(=O)[nH]n2)cc1C(F)(F)F [YHHU-694] | < 100 nM | 
46 | O=c1ccc(-c2ccc(NCC3CCCCC3)c(C(F)(F)F)c2)n[nH]1 [YHHU-696] | < 100 nM | 
47 | O=c1ccc(-c2ccc(SCCO)c(C(F)(F)F)c2)n[nH]1 [YHHU-700] | < 10000 nM | 
48 | CN(C)Cc1ccc(-c2ccc(=O)[nH]n2)cc1C(F)(F)F [YHHU-701] | < 10 nM | 
49 | O=c1ccc(-c2ccc(C#Cc3ccc(C(F)(F)F)cc3)c(C(F)(F)F)c2)n[nH]1 [YHHU-702] | < 10000 nM | 
50 | O=c1ccc(-c2ccc(-c3ccccc3)c(C(F)(F)F)c2)n[nH]1 [YHHU-703] | < 10000 nM | 

Row | SMILES | IC50 (Homo sapiens, Bel-7402, 72 h) | also measured
51 | O=c1ccc(-c2ccc(-n3ccnc3)c(C(F)(F)F)c2)n[nH]1 [YHHU-706] | < 10000 nM | 
52 | O=c1ccc(-c2ccc(OC(F)(F)F)c(C(F)(F)F)c2)n[nH]1 [YHHU-707] | < 10000 nM | 
53 | O=c1ccc(-c2ccc(-c3cccnc3)c(C(F)(F)F)c2)n[nH]1 [YHHU-709] | < 10000 nM | 
54 | O=c1ccc(-c2ccc(C(F)(F)F)c(C(F)(F)F)c2)n[nH]1 [YHHU-710] | < 10000 nM | 
55 | O=c1ccc(-c2ccc(NC3CCC(O)CC3)c(C(F)(F)F)c2)n[nH]1 (stereo not shown) [YHHU-711] | < 1000 nM | 
56 | O=c1ccc(-c2ccc(NC3CCCC(O)C3)c(C(F)(F)F)c2)n[nH]1 (stereo not shown) [YHHU-712] | < 1000 nM | 
57 | O=c1ccc(-c2ccc(OCC3CC3)c(C(F)(F)F)c2)n[nH]1 [YHHU-713] | < 1000 nM | 
58 | O=c1ccc(-c2ccc(OCc3ccccc3)c(C(F)(F)F)c2)n[nH]1 [YHHU-714] | < 10000 nM | 
59 | O=c1ccc(-c2ccc(NC3CCCCC3)c(C(F)(F)F)c2)n[nH]1 [YHHU-715] |  | IC50 (72 hours): < 10000 nM
60 | O=c1ccc(-c2ccc(NC3CCCCC3O)c(C(F)(F)F)c2)n[nH]1 (stereo not shown) [YHHU-716] | < 10000 nM | 
61 | Cc1ccc(Sc2ccc(-c3ccc(=O)[nH]n3)cc2C(F)(F)F)cc1 [YHHU-717] | > 1000 nM | 
62 | O=c1ccc(-c2ccc(N3CC4CCCC4C3)c(C(F)(F)F)c2)n[nH]1 (stereo not shown) [YHHU-718] | < 10000 nM | 
63 | CN(C)CCNc1ccc(-c2ccc(=O)[nH]n2)cc1C(F)(F)F [YHHU-745] | > 1000 nM | 
64 | CN(C)CCN(C)c1ccc(-c2ccc(=O)[nH]n2)cc1C(F)(F)F [YHHU-746] | > 1000 nM | 
65 | O=c1ccc(-c2ccc(N3CCCCCC3)c(C(F)(F)F)c2)n[nH]1 [YHHU-747] | < 10 nM | 
66 | CC1CN1c1ccc(-c2ccc(=O)[nH]n2)cc1C(F)(F)F (stereo not shown) [YHHU-748] |  | IC50 (Homo sapiens, 72 hours): < 10 nM
67 | CC(O)C1CCN(c2ccc(-c3ccc(=O)[nH]n3)cc2C(F)(F)F)CC1 (stereo not shown) [YHHU-751] | < 10 nM | 
68 | O=c1ccc(-c2ccc(N3CC(O)C3)c(C(F)(F)F)c2)n[nH]1 [YHHU-752] | < 100 nM | 
69 | O=c1ccc(-c2ccc(N3CCCC(O)C3)c(C(F)(F)F)c2)n[nH]1 (stereo not shown) [YHHU-753] | < 100 nM | 
70 | O=c1ccc(-c2ccc(NC3CCCCC3)c(C(F)(F)F)c2)n[nH]1 [YHHU-757] |  | IC50 (72 hours): < 10 nM
71 | CNc1ccc(-c2ccc(=O)[nH]n2)cc1C(F)(F)F [YHHU-758] | < 10 nM | 
72 | O=c1ccc(-c2ccc(NCCO)c(C(F)(F)F)c2)n[nH]1 [YHHU-760] | > 100 nM | 
73 | CC(C)Nc1ccc(-c2ccc(=O)[nH]n2)cc1C(F)(F)F [YHHU-761] | < 10 nM | 

From US9212146B2, “Substituted pyridazinones for the treatment of tumors” (SHANGHAI INSTITUTE OF MATERIA MEDICA, CHINESE ACADEMY OF …, priority 2008, dated 2015)
